Test system: C. formosanus workers
Experiment: Repellency, choice of treated and untreated filter paper in three-chambered containers
Assay type: in vivo, Coptotermes formosanus
Conditions: for concentration of strong repellency and significant reduction in feeding activity: alternative food choice, 15 days
Source text: Thirty-five transparent plastic containers (17.7 cm×8.0 cm×4.0 cm), Pioneer Packaging Co., North Dixon, Ky.), each with three chambers (8.0 cm×5.75 cm×4.0 cm), were used. An opening (3.5 cm×0.3 cm) was made at the bottom of each of the two inner walls, connecting the three chambers and allowing termites to move between the chambers. For each container, filter papers (Whatman #2, 5.5 cm diameter) were placed in the two lateral side chambers. For each treatment, five replicates (five containers) were used; for each replicate, one side chamber was marked “treated” and the other side chamber marked “untreated.”
A stock solution of 2′-acetonaphthone was prepared by dissolving 0.952 mg (AI) in 5 ml ethanol (190.4 mg/l). One-half of this solution was used to apply 500 μl to filter paper placed in the “treated” chamber to test the highest concentration of 2′-acetonaphthone, 4.0 μg/cm^2. The remaining volume, 2.5 ml, was diluted by adding an equal volume of ethanol. One-half of this new solution was used to add 500 μl to each of 5 filter papers in a “treated” chamber to achieve a concentration of 2.0 μg/cm^2. This dilution and application step was repeated four more times to make four additional concentrations equivalent to 1.0, 0.50, 0.250 and 0.125 μg/cm^2. Filter papers placed in the “untreated” chambers were left untreated. Five containers served as replicates for each tested concentration. Five containers served as controls, in which filter paper in the “treated” chamber received 500 μl ethanol, and that in the “untreated” chamber was left untreated.
Containers were kept at ambient conditons overnight for ethanol evaporation, and then all filter papers were weighed. In the middle chamber of all containers, 55 g wetted sand (50 g sand mixed with 5 ml DDH2O) was added, then packed and leveled to allow for clear visualization of tunnels along the bottom of the containers. Treated and untreated filter papers were wetted with 250 μl DDH2O. Then 100 workers and 5 soldiers from colony E were released onto the surface of the sand in the middle chamber.
The containers were covered and incubated for 12 days at 26.6° C. and 70% RH, and checked every 2 days for moisture content. The number of termites in the two lateral chambers was recorded daily for 3 days. On day 12, the bottom of each container was scanned (ScanJet 4c, Hewlett-Packard, Palo Alto, Calif.) and the images printed to measure and calculate the areas of tunnels. The experiment was ended on day 12, and the number of living termites in each container counted. The treated and untreated filter papers were gently cleaned using deionized water and a small brush to remove all debris. Filter papers were then oven dried at 60° C. for 3 h, and re-weighed to calculate food consumption.
A second trial was conducted with higher concentrations of 2′-acetonaphthone (5 to 40 μ/cm^2) using the above technique with some modifications. A stock solution (1900 mg/l) was prepared by dissolving 0.038 g (AI) 2′-acetonaphthone in 20 ml ethanol. Dilutions were made by taking 6.0, 4.5, 3.0, 1.5, and 0.75 ml from the original stock, and adjusting the volume of each to 6.0 ml with ethanol to yield the following concentrations: 1900.0, 1425.0, 950.0, 475.0, 237.5 mg/l, respectively. For each concentration, ten containers were used, with the filter paper in the “treated” chamber coated with 500 μl of the tested concentration. Filter papers placed in the “untreated” chamber were left untreated. For controls, ten containers were similarly handled except that the filter paper in the “treated” chamber was coated with 500 μl ethanol. The solvent was allowed to evaporate overnight at ambient conditions. The final concentrations of 2′-acetonaphthone on the filter papers were 5, 10, 20, 30, and 40 μg/cm^2.
The ten containers for each concentration were equally divided into two equal sub-groups. […]

With CC(=O)c1ccc2ccccc2c1 [2′-acetonaphthone] the “concentration of strong repellency and significant reduction in feeding activity” value was no less than 20 μg/cm^2, the “concentration of strong repellency and significant reduction in feeding activity” value (listed as 2′-Acetonaphthone) was no less than 20.0 μg/cm^2 and the “concentration of strong repellency and significant reduction in feeding activity” value (listed as 2′-aceetonaphthone) was no less than 20.0 μg/cm^2. The “concentration of strong repellency and significant reduction in feeding activity” value (listed as 2′-acetonapththone) was no less than 20 μg/cm^2, the “Survival rates after 15 days exposure” value (concentrations ≧20 μg/cm^2, control 63.0%, difference not significant) was 45.0-51.2% and the “concentration with significant differences in termite distribution between the chambers” value (day 8) was no less than 5.0 μg/cm^2. The “concentration at which repellent” value (untreated food source available) was 5 μg/cm^2 filter paper and the “concentration with significantly more termites in the untreated chamber than in the treated chamber” value (within the first 3 days) was no less than 10.0 μg/cm^2.

— patent US7351744B2, “Naphthalene derivatives as termite repellents and toxicants” (Board of Supervisors of Louisiana State University and …, priority 2003, dated 2008)
